Laboratory results published in US12624044B2, “SMARCA degraders and uses thereof” (Kymera Therapeutics, Inc., priority 2019, dated 2026).
Where a name gives a salt, the structure may show the parent alone.

Biological target: SMARCA2 (Homo sapiens, UniProt P51531)
Experiment: MSD SMARCA2 degradation in NCI-H1299 cell line (24 h)
Assay type: cell-based
Parameters: HC: NCI-H1299 cells treated with DMSO; host or cells: NCI-H1299
Details: for DC50: NCI-H1299 cells, read-out: SMARCA2 MSD H1299 degradation 24 h: External Abs-DC50; for Dmax: NCI-H1299, NCI-H1299 cells
Procedure, shortened: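 SMARCA2 measured by MSD electrochemiluminescence (primary 0.3 ug/ml, secondary 1 ug/ml) on lysates from NCI-H1299 cells exposed to compounds for 24 h across nine 3-fold dilutions. Signal scaled from A2780 cells (no SMARCA2) to DMSO-treated H1299 controls, and maximal degradation after 24 h reported in letter categories.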

SMARCA2, sequence (P51531 whole entry): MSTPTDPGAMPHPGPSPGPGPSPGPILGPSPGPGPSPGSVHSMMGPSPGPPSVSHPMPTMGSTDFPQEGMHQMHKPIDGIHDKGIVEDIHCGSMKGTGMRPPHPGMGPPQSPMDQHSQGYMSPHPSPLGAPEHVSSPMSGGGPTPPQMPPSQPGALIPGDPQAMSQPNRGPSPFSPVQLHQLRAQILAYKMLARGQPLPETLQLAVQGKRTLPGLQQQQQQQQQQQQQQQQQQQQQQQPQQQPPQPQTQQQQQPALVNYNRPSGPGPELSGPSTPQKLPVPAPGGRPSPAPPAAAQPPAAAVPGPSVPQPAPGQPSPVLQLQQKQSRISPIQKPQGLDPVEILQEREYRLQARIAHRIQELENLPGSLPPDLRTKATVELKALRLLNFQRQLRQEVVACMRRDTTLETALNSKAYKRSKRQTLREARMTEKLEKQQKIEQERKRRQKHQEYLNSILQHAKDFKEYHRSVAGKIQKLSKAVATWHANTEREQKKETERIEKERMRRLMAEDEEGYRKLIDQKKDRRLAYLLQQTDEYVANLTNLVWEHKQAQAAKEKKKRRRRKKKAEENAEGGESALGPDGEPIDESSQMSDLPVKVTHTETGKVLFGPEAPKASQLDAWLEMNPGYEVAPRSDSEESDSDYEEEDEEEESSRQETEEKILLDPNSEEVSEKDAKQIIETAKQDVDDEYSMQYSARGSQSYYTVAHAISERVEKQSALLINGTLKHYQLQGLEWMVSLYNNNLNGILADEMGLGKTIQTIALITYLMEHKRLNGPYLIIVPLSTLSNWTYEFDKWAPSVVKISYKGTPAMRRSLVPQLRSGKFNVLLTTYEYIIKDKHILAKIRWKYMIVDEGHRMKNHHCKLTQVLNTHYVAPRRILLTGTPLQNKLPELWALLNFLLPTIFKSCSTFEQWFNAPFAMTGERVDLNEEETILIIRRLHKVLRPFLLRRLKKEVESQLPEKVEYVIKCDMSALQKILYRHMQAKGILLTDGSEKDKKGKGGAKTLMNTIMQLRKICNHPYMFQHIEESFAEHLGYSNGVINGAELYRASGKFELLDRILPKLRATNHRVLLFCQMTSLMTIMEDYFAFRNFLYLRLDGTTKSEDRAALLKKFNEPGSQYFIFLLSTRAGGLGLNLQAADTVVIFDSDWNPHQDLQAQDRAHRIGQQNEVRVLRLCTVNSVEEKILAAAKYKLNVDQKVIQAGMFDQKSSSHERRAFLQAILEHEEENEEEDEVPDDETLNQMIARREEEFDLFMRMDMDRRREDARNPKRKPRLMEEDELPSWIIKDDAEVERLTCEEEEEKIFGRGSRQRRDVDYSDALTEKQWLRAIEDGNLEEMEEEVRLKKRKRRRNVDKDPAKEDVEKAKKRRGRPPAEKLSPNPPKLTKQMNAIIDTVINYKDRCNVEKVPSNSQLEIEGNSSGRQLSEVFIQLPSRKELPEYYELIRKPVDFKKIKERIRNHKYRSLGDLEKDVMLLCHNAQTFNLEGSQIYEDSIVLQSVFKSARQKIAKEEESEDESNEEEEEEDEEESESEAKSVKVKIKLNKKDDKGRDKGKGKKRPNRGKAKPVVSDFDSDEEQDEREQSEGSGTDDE

| DC50 | Dmax | Structure (SMILES) |
| --- | --- | --- |
| > 1 µM | – | CC(c1ccc(C(=O)NCCOCCOCCOCCOCCOCCCc2ccc3c(c2)n(C)c(=O)n3C2CCC(=O)NC2=O)cc1)n1cc(-c2cc(-c3ccccc3O)nnc2N)cn1 (centres unmarked) [I-14] |
| > 1 µM | – | Cc1ncsc1-c1ccc(CNC(=O)[C@@H]2C[C@@H](O)CN2C(=O)[C@@H](NC(=O)COCCOCCOCCOCCNC(=O)CCCOc2cccc(N3C[C@H]4C[C@@H]3CN4/C=C/C(=O)c3ccccc3O)n2)C(C)(C)C)cc1 [I-201] |
| > 1 µM | < 50% | Cn1c(=O)n(C2CCC(=O)NC2=O)c2ccc(CNCCCCCCc3cn(Cc4cccc(N5C[C@H]6C[C@@H]5CN6/C=C/C(=O)c5ccccc5O)n4)nn3)cc21 (some centres unmarked) [I-77] |
| > 1 µM | < 50% | Cn1c(=O)n(C2CCC(=O)NC2=O)c2cccc(CCCOCCOCCOCCN3CCN(Cc4ccc(-c5cc(-c6ccccc6O)nnc5N)cc4)CC3)c21 (centres unmarked) [I-108] |
| 0.1 to 0.5 µM | 50 to 70% | Cn1c(=O)n(C2CCC(=O)NC2=O)c2ccc(CCCOCCCOCCN3CCN(Cc4ccc(-c5cc(-c6ccccc6O)nnc5N)cc4)CC3)cc21 (centres unmarked) [I-136] |
| > 1 µM | < 50% | Cn1c(=O)n(C2CCC(=O)NC2=O)c2ccc(CNCCCCc3cn(Cc4cccc(N5C[C@H]6C[C@@H]5CN6/C=C/C(=O)c5ccccc5O)n4)nn3)cc21 (some centres unmarked) [I-75] |
| > 1 µM | – | CN[C@@H](C)C(=O)N[C@H](C(=O)N1Cc2cc(OCCOCCOCCOCCNC(=O)c3ccc(C(C)n4cc(-c5cc(-c6ccccc6O)nnc5N)cn4)cc3)ccc2C[C@H]1C(=O)N[C@@H]1CCCc2ccccc21)C(C)(C)C (some centres unmarked) [I-208] |
| > 1 µM | < 50% | CN(CCCOCCCc1cccc2c1n(C)c(=O)n2C1CCC(=O)NC1=O)Cc1ccc(N2CCN(c3cc(-c4ccccc4O)nnc3N)CC2)cc1 (centres unmarked) [I-112] |
| > 1 µM | – | O=C(CCCCCCCCOc1ccc(N2C[C@H]3C[C@@H]2CN3/C=C/C(=O)c2ccccc2O)nc1)NCCOCCOCCOCCNc1cccc2c1C(=O)N(C1CCC(=O)NC1=O)C2=O (some centres unmarked) [I-1] |
| > 1 µM | – | Cn1c(=O)n(C2CCC(=O)NC2=O)c2cccc(CCCOCCOc3cccc(N4C[C@H]5C[C@@H]4CN5/C=C/C(=O)c4ccccc4O)n3)c21 (some centres unmarked) [I-30] |
| 0.501 to 1 µM | 50 to 70% | Cn1c(=O)n(C2CCC(=O)NC2=O)c2ccc(CCCN3CCO[C@@H](CNCc4ccc(N5CCN(c6cc(-c7ccccc7O)nnc6N)CC5)cc4)C3)cc21 (some centres unmarked) [I-120] |
| 0.1 to 0.5 µM | > 90% | Cn1c(=O)n(C2CCC(=O)NC2=O)c2cccc(CCCCCCCCCN3CCC(Cn4cc(-c5cc(-c6ccccc6O)nnc5N)cn4)CC3)c21 (centres unmarked) [I-151] |
| > 1 µM | < 50% | Cn1c(=O)n(C2CCC(=O)NC2=O)c2cccc(CNCCCc3cn(Cc4cccc(N5C[C@H]6C[C@@H]5CN6/C=C/C(=O)c5ccccc5O)n4)nn3)c21 (some centres unmarked) [I-79] |
| 0.1 to 0.5 µM | 50 to 70% | Cn1c(=O)n(C2CCC(=O)NC2=O)c2cccc(CCCCOc3cccc(CN4CCN(c5cc(-c6ccccc6O)nnc5N)CC4)c3)c21 (centres unmarked) [I-96] |
| > 1 µM | < 50% | COc1cc(C(=O)NCCCCCNCc2ccc(N3CCN(c4cc(-c5ccccc5O)nnc4N)CC3)cc2)ccc1NC(=O)[C@@H]1N[C@@H](CC(C)(C)C)[C@](C#N)(c2ccc(Cl)cc2F)[C@H]1c1cccc(Cl)c1F [I-237] |
| > 1 µM | – | COc1cc(C(=O)NCCCNCc2ccc(N3CCN(c4cc(-c5ccccc5O)nnc4N)CC3)cc2)ccc1NC(=O)[C@@H]1N[C@@H](CC(C)(C)C)[C@](C#N)(c2ccc(Cl)cc2F)[C@H]1c1cccc(Cl)c1F [I-238, (2R,3S,4R,5S)—N-(4-((3-((4-(4-(3-amino-6-(2-hydroxyphenyl)pyridazin-4-yl)piperazin-1-yl)benzyl)amino)propyl)carbamoyl)-2-methoxyphenyl)-3-(3-chloro-2-fluorophenyl)-4-(4-chloro-2-fluorophenyl)-4-cyano-5-neopentylpyrrolidine-2-carboxamide hydrochloride] |
| 0.501 to 1 µM | 70 to 90% | Cc1ncsc1-c1ccc(CNC(=O)[C@@H]2C[C@@H](O)CN2C(=O)[C@@H](NC(=O)CCCCCCCCCN(C)Cc2ccc(N3CCN(c4cc(-c5ccccc5O)nnc4N)CC3)cc2)C(C)(C)C)cc1 [I-213] |
| > 1 µM | – | O=C(CCCCCCCCOc1ccc(N2C[C@H]3C[C@@H]2CN3/C=C/C(=O)c2ccccc2O)nc1)NCCOCCOCCOCCOCCNc1cccc2c1C(=O)N(C1CCC(=O)NC1=O)C2=O (some centres unmarked) [I-2] |

| DC50 | Dmax | Structure (SMILES) |
| --- | --- | --- |
| > 1 µM | < 50% | Cn1c(=O)n(C2CCC(=O)NC2=O)c2ccc(CCCCCCCCc3cccc(CN4CCN(c5cc(-c6ccccc6O)nnc5N)CC4)c3)cc21 (centres unmarked) [I-152, 3-(5-(8-(3-((4-(3-amino-6-(2-hydroxyphenyl)pyridazin-4-yl)piperazin-1-yl)methyl)phenyl)octyl)-3-methyl-2-oxo-2,3-dihydro-1H-benzo[d]imidazol-1-yl) piperidine-2,6-dione] |
| 0.1 to 0.5 µM | 50 to 70% | Cn1c(=O)n(C2CCC(=O)NC2=O)c2ccc(CCCCN3CCC[C@@H](Cn4cc(-c5cc(-c6ccccc6O)nnc5N)cn4)C3)cc21 (some centres unmarked) [I-192] |
| > 1 µM | – | CC(c1ccc(CNCCOCCOCCOCCCc2ccc3c(c2)n(C)c(=O)n3C2CCC(=O)NC2=O)cc1)n1cc(-c2cc(-c3ccccc3O)nnc2N)cn1 (centres unmarked) [I-42, 3-(5-(1-(4-(1-(4-(3-amino-6-(2-hydroxyphenyl)pyridazin-4-yl)-1H-pyrazol-1-yl)ethyl)phenyl)-5,8,11-trioxa-2-azatetradecan-14-yl)-3-methyl-2-oxo-2,3-dihydro-1H-benzo[d]imidazol-1-yl)piperidine-2,6-dione] |
| > 1 µM | – | Cn1c(=O)n(C2CCC(=O)NC2=O)c2ccc(CCCNCc3cn(Cc4cccc(N5C[C@H]6C[C@@H]5CN6/C=C/C(=O)c5ccccc5O)n4)nn3)cc21 (some centres unmarked) [I-29] |
| > 1 µM | – | Cc1ncsc1-c1ccc(CNC(=O)[C@@H]2C[C@@H](O)CN2C(=O)[C@@H](NC(=O)COCCOCCOCCNC(=O)CCCOc2cccc(N3C[C@H]4C[C@@H]3CN4/C=C/C(=O)c3ccccc3O)n2)C(C)(C)C)cc1 [I-218] |
| > 1 µM | < 50% | Cn1c(=O)n(C2CCC(=O)NC2=O)c2cccc(CNCCCCCCc3cn(Cc4cccc(N5C[C@H]6C[C@@H]5CN6/C=C/C(=O)c5ccccc5O)n4)nn3)c21 (some centres unmarked) [I-82] |
| > 1 µM | – | O=C1CCC(N2C(=O)c3cccc(OCCCc4cn(Cc5cccc(N6C[C@H]7C[C@@H]6CN7/C=C/C(=O)c6ccccc6O)n5)nn4)c3C2=O)C(=O)N1 (stereo partly drawn) [I-36, 2-(2,6-dioxo-3-piperidyl)-4-[3-[1-[[6-[(1R,4R)-5-[(E)-3-(2-hydroxyphenyl)-3-oxo-prop-1-enyl]-2,5-diazabicyclo[2.2.1]heptan-2-yl]-2-pyridyl]methyl]triazol-4-yl]propoxy]isoindoline-1,3-dione] |
| > 1 µM | < 50% | CN1C(=O)CCC(n2c(=O)n(C)c3cc(CCCOCCCCN4CCN(Cc5ccc(-c6cc(-c7ccccc7O)nnc6N)cc5)CC4)ccc32)C1=O (centres unmarked) [I-160] |
| > 1 µM | – | O=C1CCC(N2C(=O)c3cccc(NCCOCc4cn(Cc5cccc(N6C[C@H]7C[C@@H]6CN7/C=C/C(=O)c6ccccc6O)n5)nn4)c3C2=O)C(=O)N1 (some centres unmarked) [I-38] |
| < 0.1 µM | > 90% | Cn1c(=O)n(C2CCC(=O)NC2=O)c2ccc(CCCCOCCCCNCc3ccc(N4CCN(c5cc(-c6ccccc6O)nnc5N)CC4)cc3)cc21 (centres unmarked) [I-128] |
| > 1 µM | – | CC(c1ccc(C(=O)NCCOCCOCCOCCOCCOCCNc2cccc3c2C(=O)N(C2CCC(=O)NC2=O)C3=O)cc1)n1cc(-c2cc(-c3ccccc3O)nnc2N)cn1 (centres unmarked) [I-11] |
| > 1 µM | – | CN[C@@H](C)C(=O)N[C@H](C(=O)N1Cc2cc(OCCOCCOCCNC(=O)c3ccc(C(C)n4cc(-c5cc(-c6ccccc6O)nnc5N)cn4)cc3)ccc2C[C@H]1C(=O)N[C@@H]1CCCc2ccccc21)C(C)(C)C (some centres unmarked) [I-209] |
| 0.1 to 0.5 µM | 70 to 90% | Cn1c(=O)n(C2CCC(=O)NC2=O)c2cccc(CCCN3CCC[C@@H](Cn4cc(-c5cc(-c6ccccc6O)nnc5N)cn4)C3)c21 (some centres unmarked) [I-188] |
| > 1 µM | < 50% | O=C1CCC(n2c(=O)n(CCCCCCCCc3cn(Cc4cccc(N5C[C@H]6C[C@@H]5CN6/C=C/C(=O)c5ccccc5O)n4)nn3)c3ccccc32)C(=O)N1 (some centres unmarked) [I-58] |
| > 1 µM | < 50% | Cn1c(=O)n(C2CCC(=O)NC2=O)c2ccc(CCCOCCN3CCN(Cc4ccc(-c5cc(-c6ccccc6O)nnc5N)cc4)CC3)cc21 (centres unmarked) [I-105, 3-[5-[3-[2-[4-[[4-[3-amino-6-(2-hydroxyphenyl)pyridazin-4-yl]phenyl]methyl]piperazin-1-yl]ethoxy]propyl]-3-methyl-2-oxo-benzimidazol-1-yl]piperidine-2,6-dione] |
| > 1 µM | – | CC(c1ccc(C(=O)NCCOCCOCCOCCNc2cccc3c2C(=O)N(C2CCC(=O)NC2=O)C3=O)cc1)n1cc(-c2cc(-c3ccccc3O)nnc2N)cn1 (centres unmarked) [I-9] |
| > 1 µM | < 50% | Cn1c(=O)n(C2CCC(=O)NC2=O)c2ccc(C#CCCc3cn(Cc4cccc(N5C[C@H]6C[C@@H]5CN6/C=C/C(=O)c5ccccc5O)n4)nn3)cc21 (some centres unmarked) [I-59] |

| Structure (SMILES) | DC50 | Dmax |
| --- | --- | --- |
| Cn1c(=O)n(C2CCC(=O)NC2=O)c2ccc(CN3CC4(CCN(Cc5cnc(N6C7CCC6CN(c6cc(-c8ccccc8O)nnc6N)C7)nc5)CC4)C3)cc21 (centres unmarked) [I-166] | < 0.1 µM | > 90% |
| CN(Cc1ccc2c(c1)n(C)c(=O)n2C1CCC(=O)NC1=O)C1CCN(Cc2cnc(N3C4CCC3CN(c3cc(-c5ccccc5O)nnc3N)C4)nc2)CC1 (centres unmarked) [I-164, 3-(5-(((1-((2-(3-(3-amino-6-(2-hydroxyphenyl)pyridazin-4-yl)-3,8-diazabicyclo[3.2.1]octan-8-yl)pyrimidin-5-yl)methyl)piperidin-4-yl)(methyl)amino)methyl)-3-methyl-2-oxo-2,3-dihydro-1H-benzo[d]imidazol-1-yl)piperidine-2,6-dione hydrogen chloride] | < 0.1 µM | > 90% |
